Measured values taken from paper PMC4534804, “Pharmacokinetics of a multicomponent herbal preparation in healthy Chinese and African volunteers” (Scientific Reports, 2015).
Each block holds one compound with its values, some of them ahead of it.

Key:
[1] = Identification of prototype compounds and metabolites in human plasma after oral K-601 (UPLC-QTOF/MS, EIC peak height); format: in vivo
Description: (§1) Chromatographic separation was carried out at 25 °C on a Zorbax RRHD Eclipse Plus C18 column (2.1 × 50 mm, 1.8 μm). The mobile phase consisted of 0.1% formic acid solution (A) and ACN (B) using a gradient elution of 0–5% B at 0–6 min, 5–8% B at 6–15 min, 8–15% B at 15–20 min, 15–20% B at 20–30 min, 20–30% at 30–35 min, 30–35% at 35–45 min, 35–40% at 45–60 min. The flow rate was kept at 0.2 mL/min, and the sample volume injected was set at 5 μL. […] The parameters of operation were as follows: drying gas N2 flow rate, 10.0 L/min; temperature, 330 °C; nebulizer, 35 psig; capillary, 3000 V; skimmer, 60 V; OCT RFV, 250 V. Each sample was analyzed in both the positive and negative modes due to the selective sensitivities to different components of the formulation-providing better information for molecular formulae and structural identification. Mass spectra were recorded across the range m/z 100–1000 with accurate mass measurements.
A total of six healthy male volunteers, ages ranging from 22–47 years took part in this study. Three of whom are Africans and three Chinese. […] None was also on any medication.
Blood samples were withdrawn from subjects at the following time intervals, 0 hour (before taking medication and breakfast), 1, 2, 4, and 6 hours after taking the medication. These blood samples were taken by a qualified phlebotomist in the hospital. Each volunteer took 40 mL of same batch of the medication as a single dose. […] Details of subjects in the pharmacokinetic studies are provided (Table 5).
(§2) All blood samples taken at each time were immediately centrifuged at 13000 rpm for 10 min, and the plasma separated and stored at −80 °C until analysis. Plasma samples were thawed at 37 °C before solid-phase extraction (SPE) treatment for UPLC-QTOF/MS analysis. The sample treatment procedure is schematically presented in Supplementary Figure S3.

[2] = Pharmacokinetics of major prototype compounds in healthy Chinese and African volunteers after single oral K-601 (EIC peak area vs time); format: in vivo, human; settings: single oral 40 mL K-601; for Tmax: male, human, plasma, po, 40 mL
Description: A total of six healthy male volunteers, ages ranging from 22–47 years took part in this study. Three of whom are Africans and three Chinese. All volunteers avoided the intake of alcohol/alcoholic beverages, coffee/beverages containing coffee for at least 12 hours prior to the study. None was also on any medication. All volunteers also fasted for 12 hours prior to the study and throughout the study period.
Blood samples were withdrawn from subjects at the following time intervals, 0 hour (before taking medication and breakfast), 1, 2, 4, and 6 hours after taking the medication. These blood samples were taken by a qualified phlebotomist in the hospital. Each volunteer took 40 mL of same batch of the medication as a single dose. This study was approved by the Ethics Committee of the First Affiliated Hospital of Nanjing Medical University (2013-SRFA-078) and conducted under the guidelines of the Helsinki Declaration and the International Conference on Harmonization-Good Clinical Practices (ICH-GCP). Details of subjects in the pharmacokinetic studies are provided (Table 5).
as §2
Pharmacokinetic analyses were done using the extracted ion chromatograms (EIC) of the most abundant compounds. The peak areas of derived from the EIC were plotted against time (h).

[3] = system: human intestinal flora; test: Biotransformation and metabolism of K-601 by human fecal flora (anaerobic incubation); format: in vitro ADME
Description: as §1

[4] = human plasma after single oral 40 mL K-601, prototype compounds
[5] = human plasma after administration of K-601, metabolites

Compound: Cc1cc(O)c2c(c1)C(=O)c1cc(O)cc(O)c1C2=O [P12, Emodin]
Abund. (peak height in the EIC) of prototype compound in plasma [1, 4]: 0.04 ×10^4

Tmax ([2]; African volunteers): 4 h
Tmax ([2]; Chinese volunteers): 1 h
AUC comparison African vs Chinese volunteers (in words) [2]: higher
Compound: COc1cc2c(cc1OC)-c1cc3ccc(OC)c(OC)c3c[n+]1CC2 [P4, Palmatine]
Abund. (peak height in the EIC) of prototype compound in plasma [1, 4]: 12.63 ×10^4
Peak abundance (class) of prototype compound in plasma [1, 4]: High (> 1.00 × 10^4, defined as major constituent, thus high-level)

Compound: Caffeoyl-CH2-O-quinic acid [P9]
Abund. (peak height in the EIC) of prototype compound in plasma [1, 4]: 0.03 ×10^4

Compound: O=C(O)c1cc(O)c2c(c1)C(=O)c1cccc(O)c1C2=O [P14, Rhein]
Abund. (peak height in the EIC) of prototype compound in plasma [1, 4]: 0.62 ×10^4

Compound: COc1cc2c(cc1OC)[C@@H]1Cc3ccc(OC)c(OC)c3CN1CC2 [P2, Tetrahydropalmatine]
Abund. (peak height in the EIC) of prototype compound in plasma [1, 4]: 0.03 ×10^4

Tmax ([2]; African volunteers): 4 h
Tmax ([2]; Chinese volunteers): 1 h
AUC comparison African vs Chinese volunteers (in words) [2]: higher
Compound: COc1ccc2cc3[n+](cc2c1OC)CCc1cc2c(cc1-3)OCO2 [P5, Berberine]
Abund. (peak height in the EIC) of prototype compound in plasma [1, 4]: 50.35 ×10^4
Peak abundance (class) of prototype compound in plasma [1, 4]: High (> 1.00 × 10^4, defined as major constituent, thus high-level)

Compound: O=c1c(O[C@@H]2O[C@H](CO)[C@H](O)[C@H](O)[C@H]2O)c(-c2ccc(O)c(O)c2)oc2cc(O)cc(O)c12 [P10, Hyperoside]
Abund. (peak height in the EIC) of prototype compound in plasma [1, 4]: 0.05 ×10^4

Compound: Cc1cc(O)c2c(c1)C(=O)c1cc(C(=O)O)cc(O)c1C2=O [P15, 6-Methyl-rhein]
Abund. (peak height in the EIC) of prototype compound in plasma ([1]; in vivo, po): 0.06 ×10^4

Compound: COc1c(O[C@@H]2O[C@H](C(=O)O)[C@@H](O)[C@H](O)[C@H]2O)cc(O)c2c(=O)cc(-c3ccccc3)oc12 [P13, Wogonoside]
Abund. (peak height in the EIC) of prototype compound in plasma [1, 4]: 0.42 ×10^4

AUC comparison African vs Chinese volunteers (in words) [2]: better in the Chinese volunteers
Compound: COc1ccc2c(c1O)-c1c(O)c(OC)cc3c1[C@H](C2)[N+](C)(C)CC3 [P1, Magnoflorine]
Abund. (peak height in the EIC) of prototype compound in plasma ([1]; male, human, in vivo, po): 6.52 ×10^4

Compound: C=C[C@H]1[C@H](O[C@@H]2O[C@H](CO)[C@@H](O)[C@H](O)[C@H]2O)OC=C(C(=O)O)[C@H]1CC(=O)O [P6, Secologanoside]
Abund. (peak height in the EIC) of prototype compound in plasma ([1]; in vivo, po): 0.02 ×10^4

Compound: O=C(/C=C/c1ccc(O)c(O)c1)O[C@@H]1C[C@](O)(C(=O)O)C[C@@H](O)[C@H]1O [P7, Chlorogenic acid]
Abund. (peak height in the EIC) of prototype compound in plasma [1, 4]: 0.03 ×10^4

Compound: O=C1c2cccc(O)c2C(=O)c2c(O)cc(O)cc21 [M10]
Abund. (peak height in the EIC) of metabolite in plasma [1, 5]: 0.02 ×10^4
Peak abundance (class) of metabolite in plasma [1, 5]: Low (<0.10 × 10^4 as trace constituent, thus low-level)

Compound: 4-O-caffeoylquinic acid [P8]
Abund. (peak height in the EIC) of prototype compound in plasma ([1]; in vivo, po): 0.04 ×10^4

Compound: COc1cc2c(cc1O)CC[n+]1cc3c(OC)c(OC)ccc3cc1-2 [P3, Jatrorrhizine]
Tmax ([2]; African volunteers): 4 h
Tmax ([2]; Chinese volunteers): 1 h
AUC comparison African vs Chinese volunteers (in words) [2]: higher
Abund. (peak height in the EIC) of prototype compound in plasma ([1]; male, human, in vivo, po): 3.53 ×10^4

Abund. (peak height in the EIC) of metabolite from human intestinal transformation [3]: 0.05 ×10^4
Compound: O=C(O)c1cc(O)c(O)c(O)c1O [T1]
